Source: publication PMC6225165, “Design and Synthesis of Novel Dehydroepiandrosterone Analogues as Potent Antiproliferative Agents” (Molecules : A Journal of Synthetic Chemistry and Natural …, 2018)

How the values were obtained:
[1] = system: MCF-7; test: MTT antiproliferative assay, MCF-7; format: cell-based, human; conditions: for % Growth Inhibition at 100 μM MCF-7 / inhibition at 100 µM / IC50: 48 h, MTT; for inhibition at 100 µM / IC50: Homo sapiens, MCF7; for inhibition at 100 µM: read-out: % Growth Inhibition at 100 μM MCF-7
Procedure: (§1) The antiproliferative activity of the title compounds against the panel of six different human cancer cell lines, viz. lung (A549), cervix (HeLa), liver (HepG-2), liver (BEL7402), colorectal (HCT116), and breast (MCF-7) cell lines, was evaluated using a standard MTT-based colorimetric assay. All cell lines were obtained from the Key Laboratory of Natural Resources and Functional Molecules of the Changbai Mountain (Yanbian University) and maintained in Dulbecco’s modified Eagle’s medium (DMEM) and RPMI Media 1640 (RPMI1640), supplemented with 10% foetal bovine serum (FBS) at 37 °C in a humidified atmosphere containing 5% CO2.
(§2) Cells were plated in 96-well plates at appropriate densities to ensure exponential growth throughout the experimental period (9 × 10^3 cells per well), and then allowed to adhere for 24 h. Cells were then treated for 48 h with each compound. After 48 h of incubation, 10 μL of MTT solution were added to each well to a final concentration of 2 mg·mL^−1. Plates were then incubated for a further 4 h. After incubation, the MTT solution was removed and 150 μL of DMSO were added to each well for coloration. The plates were shaken vigorously for 10 min at room temperature to ensure complete solubilisation. The optometric density (OD) was read on a microplate reader (EL × 800, BioTek, Highland Park, Winooski, VT, USA) at 492 nm, and the data were subsequently analysed. The percentage of cell growth inhibition was calculated from the following equation:Inhibitory rate (%) = [1 − (ODtreated − ODblank)/(ODcontrol − ODblank)] × 100.
(§3) To obtain the antiproliferative activity of compounds 2a–2w, the compounds were selected in the same way with four serial concentrations (1, 10, 50 and 100 μM) of those compounds. The optometric density (OD) reading was then used to calculate the IC50.

[2] = system: HepG-2; test: MTT antiproliferative assay, HepG-2; format: cell-based, human; conditions: for % Growth Inhibition at 100 μM HepG-2 / inhibition at 100 µM / IC50: 48 h, MTT; for inhibition at 100 µM / IC50: Homo sapiens, HepG2; for inhibition at 100 µM: read-out: % Growth Inhibition at 100 μM HepG-2; for Selectivity Index HepG-2: IC50 on normal cells (L02)/IC50 on tumour cells
Procedure: as §1, §2, §3

[3] = system: HCT116; test: MTT antiproliferative assay, HCT116; format: cell-based, human; conditions: for % Growth Inhibition at 100 μM HCT116 / inhibition at 100 µM / IC50: 48 h, MTT; for inhibition at 100 µM / IC50: Homo sapiens, HCT-116; for inhibition at 100 µM: read-out: % Growth Inhibition at 100 μM HCT116; for Selectivity Index HCT116: IC50 on normal cells (L02)/IC50 on tumour cells
Procedure: as §1, §2, §3

[4] = system: BEL7402; test: MTT antiproliferative assay, BEL7402; format: cell-based, human; conditions: for % Growth Inhibition at 100 μM BEL7402 / inhibition at 100 µM / IC50: 48 h, MTT; for inhibition at 100 µM / IC50: Homo sapiens, Bel-7402; for inhibition at 100 µM: read-out: % Growth Inhibition at 100 μM BEL7402; for Selectivity Index BEL7402: IC50 on normal cells (L02)/IC50 on tumour cells
Procedure: as §1, §2, §3

[5] = system: A549; test: MTT antiproliferative assay, A549; format: cell-based, human; conditions: for % Growth Inhibition at 100 μM A549 / inhibition at 100 µM / IC50: 48 h, MTT; for inhibition at 100 µM / IC50: Homo sapiens, A549; for inhibition at 100 µM: read-out: % Growth Inhibition at 100 μM A549; for Selectivity Index A549: IC50 on normal cells (L02)/IC50 on tumour cells
Procedure: as §1, §2, §3

[6] = system: Hela; test: MTT antiproliferative assay, Hela; format: cell-based, human; conditions: for % Growth Inhibition at 100 μM Hela / IC50 / inhibition at 100 µM: 48 h, MTT; for IC50 / inhibition at 100 µM: Homo sapiens; for IC50: HeLa; for inhibition at 100 µM: read-out: % Growth Inhibition at 100 μM Hela; for Selectivity Index Hela: IC50 on normal cells (L02)/IC50 on tumour cells
Procedure: as §1, §2, §3

[7] = system: human normal liver (L02) cells; test: MTT assay on normal cell line L02; format: cell-based; conditions: 48 h, MTT; for % Growth Inhibition at 100 μM L02 / inhibition at 100 µM: normal cells; for inhibition at 100 µM / IC50: Homo sapiens, L02; for inhibition at 100 µM: read-out: % Growth Inhibition at 100 μM L02; for IC50: normal cell line

| SMILES | % Growth Inhibition at 100 μM MCF-7 [1] | % Growth Inhibition at 100 μM HepG-2 [2] | % Growth Inhibition at 100 μM HCT116 [3] | % Growth Inhibition at 100 μM BEL7402 [4] | % Growth Inhibition at 100 μM A549 [5] | % Growth Inhibition at 100 μM Hela [6] | % Growth Inhibition at 100 μM L02 [7] | inhibition at 100 µM [1] [%] | IC50 [1] [µM] | inhibition at 100 µM [2] [%] | IC50 [2] [µM] | inhibition at 100 µM [3] [%] | IC50 [3] [µM] | inhibition at 100 µM [4] [%] | IC50 [4] [µM] | inhibition at 100 µM [5] [%] | IC50 [5] [µM] | IC50 [6] [µM] | inhibition at 100 µM [6] [%] | inhibition at 100 µM [7] [%] | also measured |
| --- | --- | --- | --- | --- | --- | --- | --- | --- | --- | --- | --- | --- | --- | --- | --- | --- | --- | --- | --- | --- | --- |
| CC12CCC3C(CC=C4CC(O)CCC43C)C1C/C(=C\c1cn(-c3ccccc3Br)nn1)C2=O (stereo not drawn) [Compound 2i, (E)-16-((1-(2-bromophenyl)-1H-1,2,3-triazol-4-yl)methylene)-3-hydroxy-10,13-dimethyl-1,3,4,7,8,9,10,11,12,13,15,16-dodecahydro-2H-cyclopenta[a]phenan-thren-17(14H)-one] | NA (NA: antiproliferative activity <5%) | NA (NA: antiproliferative activity <5%) | 20.2% | NA (NA: antiproliferative activity <5%) | NA (NA: antiproliferative activity <5%) | 17.0% | NA (NA: antiproliferative activity <5%) | – | – | – | – | – | – | – | – | – | – | – | – | – | – |
| CC12CCC3C(CC=C4CC(O)CCC43C)C1C/C(=C\c1cn(-c3cccc(Br)c3)nn1)C2=O (stereo not drawn) [Compound 2j, (E)-16-((1-(3-bromophenyl)-1H-1,2,3-triazol-4-yl)methylene)-3-hydroxy-10,13-dimethyl-1,3,4,7,8,9,10,11,12,13,15,16-dodecahydro-2H-cyclopenta[a]phenan-thren-17(14H)-one] | 42.1% | 10.8% | 42.0% | 37.6% | NA (NA: antiproliferative activity <5%) | 20.5% | 43.8% | – | – | – | – | – | – | – | – | – | – | – | – | – | – |
| Cc1ccc(-n2cc(/C=C3\CC4C5CC=C6CC(O)CCC6(C)C5CCC4(C)C3=O)nn2)cc1 (stereo not drawn) [Compound 2p, (E)-3-hydroxy-10,13-dimethyl-16-((1-p-tolyl-1H-1,2,3-triazol-4-yl)methylene)-1,3,4,7,8,9,10,11,12,13,15,16-dodecahydro-2H-cyclopenta[a]phenanthren-17(14H)-one] | – | – | – | – | – | – | – | 21.7 | > 100 | 76 | 18.9 | 76.5 | 44.1 | 23.7 | > 100 | 63.1 | 56.7 | 62.4 | 64.6 | 67.1 | IC50 [7]: 62.2 µM |
| CC12CCC3C(CC=C4CC(O)CCC43C)C1C/C(=C\c1cn(-c3ccccc3)nn1)C2=O (stereo not drawn) [Compound 2a, (E)-3-hydroxy-10,13-dimethyl-16-((1-phenyl-1H-1,2,3-triazol-4-yl)methylene)-1,3,4,7,8,9,10,11,12,13,15,16-dodecahydro-2H-cyclopenta[a]phenanthren-17(14H)-one] | – | – | – | – | – | – | – | < 5 | – | 10.2 | – | 11.1 | – | 12.9 | – | 30.3 | – | – | < 5 | 22.3 | – |
| CC12CCC3C(CC=C4CC(O)CCC43C)C1C/C(=C\c1cn(-c3ccc([N+](=O)[O-])cc3)nn1)C2=O (stereo not drawn) [Compound 2v, (E)-3-hydroxy-10,13-dimethyl-16-((1-(4-nitrophenyl)-1H-1,2,3-triazol-4-yl)methylene)1,3,4,7,8,9,10,11,12,13,15,16-dodecahydro-2H-cyclopenta[α]phenan-thren-17(14H)-one] | NA (NA: antiproliferative activity <5%) | 12.4% | 10.2% | 13.2% | NA (NA: antiproliferative activity <5%) | NA (NA: antiproliferative activity <5%) | 5.5% | – | – | – | – | – | – | – | – | – | – | – | – | – | – |
| COc1ccccc1-n1cc(/C=C2\CC3C4CC=C5CC(O)CCC5(C)C4CCC3(C)C2=O)nn1 (stereo not drawn) [Compound 2q, (E)-3-hydroxy-16-((1-(2-methoxyphenyl)-1H-1,2,3-triazol-4-yl)methylene)-10,13-dimethyl-1,3,4,7,8,9,10,11,12,13,15,16-dodecahydro-2H-cyclopenta[a]phenan-thren-17(14H)-one] | 34.6% | NA (NA: antiproliferative activity <5%) | 14.3% | 10.0% | 7.6% | NA (NA: antiproliferative activity <5%) | NA (NA: antiproliferative activity <5%) | – | – | – | – | – | – | – | – | – | – | – | – | – | – |
| COc1cccc(-n2cc(/C=C3\CC4C5CC=C6CC(O)CCC6(C)C5CCC4(C)C3=O)nn2)c1 (stereo not drawn) [Compound 2r, (E)-3-hydroxy-16-((1-(3-methoxyphenyl)-1H-1,2,3-triazol-4-yl)methylene)-10,13-dimethyl-1,3,4,7,8,9,10,11,12,13,15,16-dodecahydro-2H-cyclopenta[a]phenan-thren-17(14H)-one] | NA (NA: antiproliferative activity <5%) | NA (NA: antiproliferative activity <5%) | NA (NA: antiproliferative activity <5%) | NA (NA: antiproliferative activity <5%) | NA (NA: antiproliferative activity <5%) | NA (NA: antiproliferative activity <5%) | 16.9% | – | – | – | – | – | – | – | – | – | – | – | – | – | – |
| CC12CCC3C(CC=C4CC(O)CCC43C)C1C/C(=C\c1cn(-c3ccccc3Cl)nn1)C2=O (stereo not drawn) [Compound 2e, (E)-16-((1-(2-chlorophenyl)-1H-1,2,3-triazol-4-yl)methylene)-3-hydroxy-10,13-di-methyl-1,3,4,7,8,9,10,11,12,13,15,16-dodecahydro-2H-cyclopenta[a]phenan-thren-17(14H)-one] | 37.3% | NA (NA: antiproliferative activity <5%) | 23.0% | 10.5% | NA (NA: antiproliferative activity <5%) | 32.8% | 12.4% | – | – | – | – | – | – | – | – | – | – | – | – | – | – |
| CC12CCC3C(CC=C4CC(O)CCC43C)C1C/C(=C\c1cn(-c3cccc(F)c3)nn1)C2=O (stereo not drawn) [Compound 2c, (E)-16-((1-(3-fluorophenyl)-1H-1,2,3-triazol-4-yl)methylene)-3-hydroxy-10,13-dimethyl-1,3,4,7,8,9,10,11,12,13,15,16-dodecahydro-2H-cyclopenta[a]phenanthren-17(14H)-one] | – | – | – | – | – | – | – | 31.2 | > 100 | 78.8 | 11.1 | 78.3 | 26.3 | 66.7 | 68.9 | 60.5 | 51.6 | 83.5 | 55.2 | 79.3 | Selectivity Index HepG-2 [2]: 7.53; Selectivity Index HCT116 [3]: 3.17; Selectivity Index BEL7402 [4]: 1.21; Selectivity Index A549 [5]: 1.61; Selectivity Index Hela [6]: 0.99; IC50 [7]: 83.4 µM |
| CC12CCC3C(CC=C4CC(O)CCC43C)C1C/C(=C\c1cn(-c3ccc(F)cc3)nn1)C2=O (stereo not drawn) [Compound 2d, (E)-16-((1-(4-fluorophenyl)-1H-1,2,3-triazol-4-yl)methylene)-3-hydroxy-10,13-dimethyl-1,3,4,7,8,9,10,11,12,13,15,16-dodecahydro-2H-cyclopenta[a]phenanthren-17(14H)-one] | – | – | – | – | – | – | – | 83 | 17.8 | 65.6 | 36.2 | 84.9 | 33.2 | 60.4 | 40.4 | 68.8 | 15.8 | 13.2 | 78.9 | 80.3 | Selectivity Index MCF-7 ([1]; IC50 on normal cells (L02)/IC50 on tumour cells): 1.56; Selectivity Index HepG-2 [2]: 0.77; Selectivity Index HCT116 [3]: 0.83; Selectivity Index BEL7402 [4]: 0.69; Selectivity Index A549 [5]: 1.76; Selectivity Index Hela [6]: 2.10; IC50 [7]: 27.8 µM |
